# From patent publication US8637509B2, “Azaindazoles” (GlaxoSmithKline LLC, priority 2010, dated 2014)
# Biological target: T1, EZH2 (Homo sapiens, UniProt Q15910)
# T1 construct: GRITS37108
# Experiment: EZH2 methyltransferase SPA assay (3H-SAM, Hela nucleosomes)
# Assay type: biochemical
# Conditions: 10 nM EZH2, 7 μg/ml Hela nucleosomes, 2-parameter IC50 fit; single-point-in-time values; read-out: IC50
# Procedure: • 1. […] Prepare 500 μM SAH quench solution in ddH20 with 5-10 drops of concentrated HCl to dissolve. • 5. Prepare 6 mg/ml RNA binding SPA beads (Perkin Elmer) suspended in 0.2 M Citric Acid, pH 2.2
# Part C. […] Dispense 5 μL no enzyme control (assay buffer mix) to column 18 of plates. • 2. Dispense 5 μL of enzyme mix to the remaining wells in the plate. Centrifuge plate to mix and incubate at room temperature for 30 minutes. • 3. Dispense 5 μL of substrate mix to all wells to initiate the reactions. Centrifuge plate to mix and incubate at room temperature for 2 hours. • 4. […] Dispense 10 μL of 6 mg/ml RNA binding SPA beads prepared in 0.2 M citric acid, pH 2.2 using the Evolution instrument. Continuously shake the beads while adding to plates to prevent beads from settling. • 6. Seal the plates with Perkin Elmer top seals and allow the beads to equilibrate in the plate for at least 30 minutes at room temperature. • 7. […] Read plates in Microbeta after at least 5 hours incubation. Plates can be read immediately, but signal increases over time.
# Reagent addition can be done manually or with automated liquid handler.
# *The final DMSO concentration in this assay is 1%.
# *The positive control is in column 6; negative control is in column 18.
# T1 sequence (Q15910 whole entry): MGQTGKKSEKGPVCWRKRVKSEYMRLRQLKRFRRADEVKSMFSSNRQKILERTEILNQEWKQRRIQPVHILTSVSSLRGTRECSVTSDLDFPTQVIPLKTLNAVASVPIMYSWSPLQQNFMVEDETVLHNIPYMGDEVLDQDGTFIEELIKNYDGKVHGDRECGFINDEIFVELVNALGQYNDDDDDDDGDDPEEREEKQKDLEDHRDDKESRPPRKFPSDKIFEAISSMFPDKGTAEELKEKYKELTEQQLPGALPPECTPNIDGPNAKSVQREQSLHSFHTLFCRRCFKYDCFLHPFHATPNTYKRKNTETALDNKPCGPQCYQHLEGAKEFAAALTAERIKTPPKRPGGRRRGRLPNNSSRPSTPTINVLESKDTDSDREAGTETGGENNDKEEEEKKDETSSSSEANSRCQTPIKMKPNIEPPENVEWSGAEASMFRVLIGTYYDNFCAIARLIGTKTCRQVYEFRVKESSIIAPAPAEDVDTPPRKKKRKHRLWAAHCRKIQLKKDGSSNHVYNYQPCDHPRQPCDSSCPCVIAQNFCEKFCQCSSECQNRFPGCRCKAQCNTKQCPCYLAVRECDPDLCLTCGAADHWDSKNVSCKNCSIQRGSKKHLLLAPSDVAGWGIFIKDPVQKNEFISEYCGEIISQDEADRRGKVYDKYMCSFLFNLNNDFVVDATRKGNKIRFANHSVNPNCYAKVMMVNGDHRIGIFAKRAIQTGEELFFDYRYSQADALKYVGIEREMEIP
# T1 sequence (O75530 whole entry partner): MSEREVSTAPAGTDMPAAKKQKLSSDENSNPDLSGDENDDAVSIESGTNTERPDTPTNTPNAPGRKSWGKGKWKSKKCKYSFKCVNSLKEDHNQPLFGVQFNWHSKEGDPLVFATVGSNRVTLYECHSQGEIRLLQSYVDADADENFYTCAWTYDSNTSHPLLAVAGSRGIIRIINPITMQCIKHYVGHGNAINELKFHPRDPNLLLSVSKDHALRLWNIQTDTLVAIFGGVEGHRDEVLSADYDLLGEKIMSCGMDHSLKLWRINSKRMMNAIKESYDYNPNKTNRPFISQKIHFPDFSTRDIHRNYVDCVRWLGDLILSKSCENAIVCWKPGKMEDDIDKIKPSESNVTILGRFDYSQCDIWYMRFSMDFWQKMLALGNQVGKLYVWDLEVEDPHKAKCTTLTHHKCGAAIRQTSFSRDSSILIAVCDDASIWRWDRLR
# T1 sequence (Q15022 whole entry partner): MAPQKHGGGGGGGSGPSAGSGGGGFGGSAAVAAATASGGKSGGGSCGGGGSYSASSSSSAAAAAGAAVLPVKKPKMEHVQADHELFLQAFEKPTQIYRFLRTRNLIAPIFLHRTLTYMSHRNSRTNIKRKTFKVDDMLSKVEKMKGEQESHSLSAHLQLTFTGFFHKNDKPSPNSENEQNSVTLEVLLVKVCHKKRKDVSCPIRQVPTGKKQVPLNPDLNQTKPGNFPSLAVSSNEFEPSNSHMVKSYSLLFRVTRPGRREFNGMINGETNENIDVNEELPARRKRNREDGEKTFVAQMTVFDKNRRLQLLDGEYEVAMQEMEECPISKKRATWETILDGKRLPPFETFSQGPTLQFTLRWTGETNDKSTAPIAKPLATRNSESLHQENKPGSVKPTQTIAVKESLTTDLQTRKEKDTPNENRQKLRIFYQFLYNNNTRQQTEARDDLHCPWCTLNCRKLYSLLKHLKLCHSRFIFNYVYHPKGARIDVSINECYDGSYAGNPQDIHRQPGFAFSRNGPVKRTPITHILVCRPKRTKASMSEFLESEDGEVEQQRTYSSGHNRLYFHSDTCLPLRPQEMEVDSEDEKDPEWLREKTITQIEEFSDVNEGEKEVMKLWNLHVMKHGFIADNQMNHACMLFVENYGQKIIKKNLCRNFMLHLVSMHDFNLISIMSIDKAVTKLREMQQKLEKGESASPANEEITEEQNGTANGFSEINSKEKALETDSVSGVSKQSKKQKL
row,Compound,IC50 [nM]
1,"6-{[4-(Aminocarbonyl)phenyl]amino}-N-[(4,6-dimethyl-2-oxo-1,2-dihydro-3-pyridinyl)methyl]-1-(1-methylethyl)-1H-pyrazolo[3,4-b]pyridine-4-carboxamide [Ex 86]",142

# Same assay, conditions: read-out: IC50
row,Compound,IC50 [nM]
1,"Cc1cc(C)c(CNC(=O)c2cc(C3CC3)nc3c2c(C)nn3C2CCC2)c(=O)[nH]1 [Ex 105, 1-Cyclobutyl-6-cyclopropyl-N-[(4,6-dimethyl-2-oxo-1,2-dihydro-3-pyridinyl)methyl]-3-methyl-1H-pyrazolo[3,4-b]pyridine-4-carboxamide]",315
2,"Cc1cc(C(C)C)c(CNC(=O)c2cc(-c3ccncc3)nc3c2cnn3C(C)C)c(=O)[nH]1 [Ex 12, 1-(1-Methylethyl)-N-{[6-methyl-4-(1-methylethyl)-2-oxo-1,2-dihydro-3-pyridinyl]methyl}-6-(4-pyridinyl)-1H-pyrazolo[3,4-b]pyridine-4-carboxamide]",55
3,"Cc1cc(C)c(CNC(=O)c2cc(NCc3ccncc3)nc3c2cnn3C(C)C)c(=O)[nH]1 [Ex 55, N-[(4,6-Dimethyl-2-oxo-1,2-dihydro-3-pyridinyl)methyl]-1-(1-methylethyl)-6-[(4-pyridinylmethyl)amino]-1H-pyrazolo[3,4-b]pyridine-4-carboxamide]",260
4,"Cc1cc(C)c(CNC(=O)c2cc(-c3ccc(N)cc3)nc3c2cnn3C(C)C)c(=O)[nH]1 [Ex 43, 6-(4-Aminophenyl)-N-[(4,6-dimethyl-2-oxo-1,2-dihydro-3-pyridinyl)methyl]-1-(1-methylethyl)-1H-pyrazolo[3,4-b]pyridine-4-carboxamide]",204
5,"Cc1cc(C)c(CNC(=O)c2cc(C3CC3)nc3c2c(C)nn3C(C)(C)C)c(=O)[nH]1 [Ex 107, 6-Cyclopropyl-1-(1,1-dimethylethyl)-N-[(4,6-dimethyl-2-oxo-1,2-dihydro-3-pyridinyl)methyl]-3-methyl-1H-pyrazolo[3,4-b]pyridine-4-carboxamide]",75
6,"Cc1cc(C)c(CNC(=O)c2cc(-c3cccc(N)c3)nc3c2cnn3C(C)C)c(=O)[nH]1 [Ex 45, 6-(3-aminophenyl)-N-[(4,6-dimethyl-2-oxo-1,2-dihydro-3-pyridinyl)methyl]-1-(1-methylethyl)-1H-pyrazolo[3,4-b]pyridine-4-carboxamide]",248
7,"Cc1cc(C)c(CNC(=O)c2cc(Cl)nc3c2c(C)nn3C(C)C)c(=O)[nH]1 [Ex 2, 6-Chloro-N-[(4,6-dimethyl-2-oxo-1,2-dihydro-3-pyridinyl)methyl]-3-methyl-1-(1-methylethyl)-1H-pyrazolo[3,4-b]pyridine-4-carboxamide]",806
8,"CCc1cc(C)c(CNC(=O)c2cc(-c3ccncc3)nc3c2cnn3C(C)C)c(=O)[nH]1 [Ex 10, N-[(6-Ethyl-4-methyl-2-oxo-1,2-dihydro-3-pyridinyl)methyl]-1-(1-methylethyl)-6-(4-pyridinyl)-1H-pyrazolo[3,4-b]pyridine-4-carboxamide]",569
9,"Cc1cc(C)c(CNC(=O)c2cc(N(C)C)nc3c2cnn3C(C)C)c(=O)[nH]1 [Ex 24, 6-(Dimethylamino)-N-[(4,6-dimethyl-2-oxo-1,2-dihydro-3-pyridinyl)methyl]-1-(1-methylethyl)-1H-pyrazolo[3,4-b]pyridine-4-carboxamide]",873
10,"Cc1cc(C)c(CNC(=O)c2cc(C3CC3)nc3c2c(C)nn3C2CCCCC2)c(=O)[nH]1 [Ex 110, 1-Cyclohexyl-6-cyclopropyl-N-[(4,6-dimethyl-2-oxo-1,2-dihydro-3-pyridinyl)methyl]-3-methyl-1H-pyrazolo[3,4-b]pyridine-4-carboxamide]",231
11,"Cc1cc(C)c(CNC(=O)c2cc(-c3ccc(N(C)C)nc3)nc3c2cnn3C(C)C)c(=O)[nH]1 [Ex 41, 6-[6-(Dimethylamino)-3-pyridinyl]-N-[(4,6-dimethyl-2-oxo-1,2-dihydro-3-pyridinyl)methyl]-1-(1-methylethyl)-1H-pyrazolo[3,4-b]pyridine-4-carboxamide]",86
12,"Cc1cc(C)c(CNC(=O)c2cc(C(C)C)nc3c2cnn3C(C)C)c(=O)[nH]1 [Ex 37, N-[(4,6-Dimethyl-2-oxo-1,2-dihydro-3-pyridinyl)methyl]-1,6-bis(1-methylethyl)-1H-pyrazolo[3,4-b]pyridine-4-carboxamide]",1100
13,"Cc1cc(C)c(CNC(=O)c2cc(-c3ccc(N4CCN(C)CC4)nc3)nc3c2c(C)nn3C(C)(C)C)c(=O)[nH]1 [Ex 87, 1-(1,1-Dimethylethyl)-N-[(4,6-dimethyl-2-oxo-1,2-dihydro-3-pyridinyl)methyl]-3-methyl-6-[6-(4-methyl-1-piperazinyl)-3-pyridinyl]-1H-pyrazolo[3,4-b]pyridine-4-carboxamide]",18
14,"Cc1cc(C)c(CNC(=O)c2cc(-c3ccc4c(c3)CC(=O)N4)nc3c2cnn3C(C)C)c(=O)[nH]1 [Ex 79, N-[(4,6-Dimethyl-2-oxo-1,2-dihydro-3-pyridinyl)methyl]-1-(1-methylethyl)-6-(2-oxo-2,3-dihydro-1H-indol-5-yl)-1H-pyrazolo[3,4-b]pyridine-4-carboxamide]",140
15,"CCNc1cc(C(=O)NCc2c(C)cc(C)[nH]c2=O)c2cnn(C(C)C)c2n1 [Ex 21, N-[(4,6-Dimethyl-2-oxo-1,2-dihydro-3-pyridinyl)methyl]-6-(ethylamino)-1-(1-methylethyl)-1H-pyrazolo[3,4-b]pyridine-4-carboxamide]",1040
16,"Cc1cc(C)c(CNC(=O)c2cc(-c3ccnc(N)c3)nc3c2cnn3C(C)C)c(=O)[nH]1 [Ex 49, 6-(2-Amino-4-pyridinyl)-N-[(4,6-dimethyl-2-oxo-1,2-dihydro-3-pyridinyl)methyl]-1-(1-methylethyl)-1H-pyrazolo[3,4-b]pyridine-4-carboxamide]",115
17,"Cc1cc(C)c(CNC(=O)c2cc(-c3ccc(C(N)=O)cc3)nc3c2cnn3C(C)C)c(=O)[nH]1 [Ex 94, 6-[4-(Aminocarbonyl)phenyl]-N-[(4,6-dimethyl-2-oxo-1,2-dihydro-3-pyridinyl)methyl]-1-(1-methylethyl)-1H-pyrazolo[3,4-b]pyridine-4-carboxamide]",103
18,"Cc1cc(C)c(CNC(=O)c2cc(N3CCOCC3)nc3c2cnn3C(C)C)c(=O)[nH]1 [Ex 26, N-[(4,6-Dimethyl-2-oxo-1,2-dihydro-3-pyridinyl)methyl]-1-(1-methylethyl)-6-(4-morpholinyl)-1H-pyrazolo[3,4-b]pyridine-4-carboxamide]",673
19,"Cc1cc(C)c(CNC(=O)c2cc(C#Cc3ccccc3)nc3c2cnn3C(C)C)c(=O)[nH]1 [Ex 31, N-[(4,6-Dimethyl-2-oxo-1,2-dihydro-3-pyridinyl)methyl]-1-(1-methylethyl)-6-(phenylethynyl)-1H-pyrazolo[3,4-b]pyridine-4-carboxamide]",232
20,"Cc1cc(C)c(CNC(=O)c2ccnc3c2cnn3C(C)C)c(=O)[nH]1 [Ex 22, N-[(4,6-Dimethyl-2-oxo-1,2-dihydro-3-pyridinyl)methyl]-1-(1-methylethyl)-1H-pyrazolo[3,4-b]pyridine-4-carboxamide]",1360
21,"Cc1cc(C)c(CNC(=O)c2cc(-c3ccc4[nH]nnc4c3)nc3c2cnn3C(C)C)c(=O)[nH]1 [Ex 76, 6-(1H-1,2,3-Benzotriazol-5-yl)-N-[(4,6-dimethyl-2-oxo-1,2-dihydro-3-pyridinyl)methyl]-1-(1-methylethyl)-1H-pyrazolo[3,4-b]pyridine-4-carboxamide]",82
22,"Cc1cc(C)c(CNC(=O)c2cc(NCCN(C)C)nc3c2cnn3C(C)C)c(=O)[nH]1 [Ex 56, 6-{[2-(Dimethylamino)ethyl]amino}-N-[(4,6-dimethyl-2-oxo-1,2-dihydro-3-pyridinyl)methyl]-1-(1-methylethyl)-1H-pyrazolo[3,4-b]pyridine-4-carboxamide]",2110
23,"Cc1cc(C)c(CNC(=O)c2cc(-c3ccc(N4CCOCC4)nc3)nc3c2c(C)nn3C(C)(C)C)c(=O)[nH]1 [Ex 89, 1-(1,1-Dimethylethyl)-N-[(4,6-dimethyl-2-oxo-1,2-dihydro-3-pyridinyl)methyl]-3-methyl-6-[6-(4-morpholinyl)-3-pyridinyl]-1H-pyrazolo[3,4-b]pyridine-4-carboxamide]",67
24,"CNC(=O)c1ccc(-c2cc(C(=O)NCc3c(C)cc(C)[nH]c3=O)c3cnn(C(C)C)c3n2)cn1 [Ex 63, N-[(4,6-Dimethyl-2-oxo-1,2-dihydro-3-pyridinyl)methyl]-6-[6-[(methylamino)carbonyl]-3-pyridinyl]-1-(1-methylethyl)-1H-pyrazolo[3,4-b]pyridine-4-carboxamide]",96
25,"COc1ccc(-c2cc(C(=O)NCc3c(C)cc(C)[nH]c3=O)c3c(C)nn(C(C)(C)C)c3n2)cc1 [Ex 121, 1-(1,1-Dimethylethyl)-N-[(4,6-dimethyl-2-oxo-1,2-dihydro-3-pyridinyl)methyl]-3-methyl-6-[4-(methyloxy)phenyl]-1H-pyrazolo[3,4-b]pyridine-4-carboxamide]",407
26,"CNS(=O)(=O)c1ccc(-c2cc(C(=O)NCc3c(C)cc(C)[nH]c3=O)c3c(C)nn(C(C)C)c3n2)cc1 [Ex 92, N-[(4,6-Dimethyl-2-oxo-1,2-dihydro-3-pyridinyl)methyl]-3-methyl-6-{4-[(methylamino)sulfonyl]phenyl}-1-(1-methylethyl)-1H-pyrazolo[3,4-b]pyridine-4-carboxamide]",76
27,"COc1ccc(-c2cc(C(=O)NCc3c(C)cc(C)[nH]c3=O)c3cnn(C(C)C)c3n2)cc1 [Ex 113, N-[(4,6-Dimethyl-2-oxo-1,2-dihydro-3-pyridinyl)methyl]-1-(1-methylethyl)-6-[4-(methyloxy)phenyl]-1H-pyrazolo[3,4-b]pyridine-4-carboxamide]",248
28,"Cc1cc(C)c(CNC(=O)c2cc(-c3ccc4cn[nH]c4c3)nc3c2cnn3C(C)C)c(=O)[nH]1 [Ex 75, N-[(4,6-Dimethyl-2-oxo-1,2-dihydro-3-pyridinyl)methyl]-6-(1H-indazol-6-yl)-1-(1-methylethyl)-1H-pyrazolo[3,4-b]pyridine-4-carboxamide]",131
29,"Cc1cc(C)c(CNC(=O)c2cc(Oc3ccncc3)nc3c2cnn3C(C)C)c(=O)[nH]1 [Ex 4, N-[(4,6-Dimethyl-2-oxo-1,2-dihydro-3-pyridinyl)methyl]-1-(1-methylethyl)-6-(4-pyridinyloxy)-1H-pyrazolo[3,4-b]pyridine-4-carboxamide]",116
